System: MDA-MB-435
Assay: MDR-reversal activity evaluated against the resistant human breast tumor cell line MDA-435/LCC6-MDR
Type: functional
Design: concentration or dose not given beside the values

Going from `CC(=O)O[C@H]1C[C@@]2(O)[C@@H](OC(=O)c3ccccc3)[C@@H]3[C@]4(OC(C)=O)CO[C@@H]4C[C@H](OC(C)=O)[C@@]3(C)C(=O)[C@H](OC(=O)/C=C/c3ccc(OC(=O)c4ccccc4)cc3)C(=C1C)C2(C)C` to `CC(=O)O[C@H]1C(=O)[C@]2(C)[C@@H](OC(=O)/C=C/c3ccc(OC(=O)c4ccccc4)cc3)C[C@H]3OC[C@@]3(OC(C)=O)[C@H]2[C@H](OC(=O)c2ccccc2)[C@]2(O)C[C@H](OC(C)=O)C(C)=C1C2(C)C`, the Reduction rises from 7% to 91%.

First: CC(=O)O[C@H]1C(=O)[C@]2(C)[C@@H](OC(=O)Cc3ccc(C(=O)c4ccccc4)cc3)C[C@H]3OC[C@@]3(OC(C)=O)[C@H]2[C@H](OC(=O)c2ccccc2)[C@]2(O)C[C@H](OC(C)=O)C(C)=C1C2(C)C
Second: CC(=O)O[C@H]1C(=O)[C@]2(C)[C@@H](OC(=O)Cc3ccc(-c4ccccc4)cc3)C[C@H]3OC[C@@]3(OC(C)=O)[C@H]2[C@H](OC(=O)c2ccccc2)[C@]2(O)C[C@H](OC(C)=O)C(C)=C1C2(C)C
The Reduction of the first is lower: 41% for the first, 57% for the second.

Compared with `CC(=O)O[C@H]1C(=O)[C@]2(C)[C@@H](OC(=O)/C=C/c3cccc(C(=O)c4ccc(C)cc4)c3)C[C@H]3OC[C@@]3(OC(C)=O)[C@H]2[C@H](OCc2ccccc2)[C@]2(O)C[C@H](OC(C)=O)C(C)=C1C2(C)C`, `CC(=O)O[C@H]1C(=O)[C@]2(C)[C@@H](OC(=O)/C=C/c3ccc(Sc4ccccc4)cc3)C[C@H]3OC[C@@]3(OC(C)=O)[C@H]2[C@H](OC(=O)c2ccccc2)[C@]2(O)C[C@H](OC(C)=O)C(C)=C1C2(C)C` is lower in Reduction: 91% for the first, 64% for the second.

First: CC(=O)O[C@H]1C(=O)[C@]2(C)[C@@H](OC(=O)/C=C/c3ccc(OC(=O)c4cccs4)cc3)C[C@H]3OC[C@@]3(OC(C)=O)[C@H]2[C@H](OC(=O)c2ccccc2)[C@]23OC(=O)O[C@H]2[C@H](OC(C)=O)C(C)=C1C3(C)C
Second: COc1cccc(C(=O)Oc2ccc(/C=C/C(=O)O[C@H]3C[C@H]4OC[C@@]4(OC(C)=O)[C@H]4[C@H](OC(=O)c5ccccc5)[C@]56OC(=O)O[C@H]5[C@H](OC(C)=O)C(C)=C([C@@H](OC(C)=O)C(=O)[C@]34C)C6(C)C)cc2)c1
The Reduction of the first is lower: 55% for the first, 62% for the second.

First: CC(=O)O[C@H]1C(=O)[C@]2(C)[C@@H](OC(=O)/C=C/c3ccc(Sc4ccccc4)cc3)C[C@H]3OC[C@@]3(OC(C)=O)[C@H]2[C@H](OC(=O)c2ccccc2)[C@]23OC(=O)O[C@H]2[C@H](OC(C)=O)C(C)=C1C3(C)C
Second: CC(=O)O[C@H]1C(=O)[C@]2(C)[C@@H](OC(=O)/C=C/c3ccc(Oc4ccccc4)cc3)C[C@H]3OC[C@@]3(OC(C)=O)[C@H]2[C@H](OC(=O)c2ccccc2)[C@]23OC(=O)O[C@H]2[C@H](OC(C)=O)C(C)=C1C3(C)C
The Reduction of the first is lower: 63% for the first, 90% for the second.

Going from `CC(=O)O[C@H]1C(=O)[C@]2(C)[C@@H](OC(=O)/C=C/c3ccc(C(=O)c4cc(C(F)(F)F)cc(C(F)(F)F)c4)cc3)C[C@H]3OC[C@@]3(OC(C)=O)[C@H]2[C@H](OC(=O)c2ccccc2)[C@]2(O)C[C@H](OC(C)=O)C(C)=C1C2(C)C` to `CC(=O)O[C@H]1C(=O)[C@]2(C)[C@@H](OC(=O)/C=C/c3ccc(OC(=O)c4ccc5ccccc5c4)cc3)C[C@H]3OC[C@@]3(OC(C)=O)[C@H]2[C@H](OC(=O)c2ccccc2)[C@]2(O)C[C@H](OC(C)=O)C(C)=C1C2(C)C`, the Reduction falls from 36% to 29%.

Going from `CC(=O)O[C@H]1C(=O)[C@]2(C)[C@@H](OC(=O)/C=C/c3cccc(NC(=O)c4ccccc4)c3)C[C@H]3OC[C@@]3(OC(C)=O)[C@H]2[C@H](OC(=O)c2ccccc2)[C@]23OC(=O)O[C@H]2[C@H](OC(C)=O)C(C)=C1C3(C)C` to `CC(=O)O[C@H]1C(=O)[C@]2(C)[C@@H](OC(=O)CCc3ccc(Cc4ccccc4)cc3)C[C@H]3OC[C@@]3(OC(C)=O)[C@H]2[C@H](OC(=O)c2ccccc2)[C@]2(O)C[C@H](OC(C)=O)C(C)=C1C2(C)C`, the Reduction falls from 91% to 16%.

Compound `CC(=O)O[C@H]1C(=O)[C@]2(C)[C@@H](OC(=O)CCc3c(F)c(F)c(F)c(F)c3F)C[C@H]3OC[C@@]3(OC(C)=O)[C@H]2[C@H](OC(=O)c2ccccc2)[C@]2(O)C[C@H](OC(C)=O)C(C)=C1C2(C)C` has a Reduction of 59%.

From ChEMBL document CHEMBL1145206, “Design, synthesis and structure-activity relationships of novel taxane-based multidrug resistance reversal agents” (2005)
